This note sets out measurements from PubChem BioAssay (NCI).

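Exposure lasted 48 hours, with cells grown in 96-well plates and compounds tested at five concentrations. Abbreviation: GI50, concentration required for 50% inhibition of growth. At the TGI there is no net growth.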

Among the test systems are NCI-H23 lung; SK-MEL-28 melanoma; SNB-75 CNS; SK-MEL-2 melanoma; HCT-116 colon; UO-31 renal; SN12C renal; HOP-92 NSCLC; ACHN renal; SR leukemia.
Holding throughout (assay): inhibition of tumour cell growth, NCI panel, 48 h

For the compound `CCOC(=O)c1c(C)nc2c(c1N)CC(=O)N2CCc1ccccc1`, the GI50 with NCI-H23 lung is 5.46 µM; with SK-MEL-28 melanoma, 2.35 µM; with SNB-75 CNS, 1.37 µM; with SK-MEL-2 melanoma, 0.53 µM; in the test with HCT-116 colon, 0.32 µM; with UO-31 renal, 1.03 µM. Also, the GI50 in the test on SN12C renal was 0.434 µM; with HOP-92 NSCLC, 0.496 µM; with ACHN renal, 0.595 µM; with SR leukemia it was 0.444 µM. In addition, the TGI in the test with NCI-H23 lung was determined as 23 µM; in the test with SK-MEL-28 melanoma, 12.1 µM; with SNB-75 CNS it was 18.1 µM; with SK-MEL-2 melanoma, 6.8 µM; with HCT-116 colon, 11.2 µM; with UO-31 renal it was 21.9 µM. Also, the TGI amounted to 18.3 µM with SN12C renal, 18.7 µM in the test with HOP-92 NSCLC, 6.48 µM with ACHN renal and 28.1 µM in the test on SR leukemia.

On to `Cc1ccc(C(SCC(N)C(=O)O)(c2ccccc2)c2ccccc2)cc1` (centres undefined), for which the GI50 in the test with NCI-H23 lung is 0.236 µM; in the test with SK-MEL-28 melanoma it was 6.5 µM; in the test with SNB-75 CNS it was 0.128 µM; with SK-MEL-2 melanoma, 2.75 µM; with HCT-116 colon, 0.0384 µM; in the test on UO-31 renal it was 13.8 µM. Also, the GI50 with SN12C renal was 0.13 µM; with HOP-92 NSCLC, 0.288 µM; in the test on ACHN renal, 2.67 µM; with SR leukemia, 0.0724 µM. The TGI is more than 96 µM in the test with NCI-H23 lung; more than 100 µM with SK-MEL-28 melanoma; 58.3 µM with SNB-75 CNS; 98 µM in the test with SK-MEL-2 melanoma; 13 µM with HCT-116 colon; more than 100 µM in the test on UO-31 renal. For the same compound, the TGI was more than 65.9 µM in the test with SN12C renal, 73.1 µM in the test on HOP-92 NSCLC, more than 100 µM in the test with ACHN renal and more than 45.8 µM in the test on SR leukemia.

Take `COc1ccc2c(c1)[n+]([O-])c(-c1ccc(C)cc1)c(N)[n+]2[O-]`: the TGI was 48.3 µM in the test with NCI-H23 lung; more than 100 µM in the test on SK-MEL-28 melanoma; more than 100 µM in the test on SNB-75 CNS; more than 100 µM with SK-MEL-2 melanoma; more than 100 µM with HCT-116 colon; more than 100 µM in the test on UO-31 renal. Further, the TGI in the test with SN12C renal, in the test on HOP-92 NSCLC, in the test with ACHN renal and in the test with SR leukemia was more than 100 µM each time.

As to `Cc1cnc2c(c1)C(=O)C1=C(OC(C)(C)CC1O)C2=O` (centres undefined), the TGI was 26.2 µM with NCI-H23 lung; 31.1 µM with SK-MEL-28 melanoma; 28.5 µM with SNB-75 CNS; more than 100 µM in the test on SK-MEL-2 melanoma; 27.9 µM with HCT-116 colon; 29.7 µM in the test with UO-31 renal. Further, the TGI in the test with SN12C renal was 29.8 µM; with HOP-92 NSCLC, 30.5 µM; in the test with ACHN renal, 29 µM; in the test on SR leukemia, more than 100 µM.

As to `N=C(N)c1ccc(NCCOCCNc2ccc(C(=N)N)cc2)cc1`, the GI50 was 6.91 µM in the test on NCI-H23 lung; 73.3 µM with SK-MEL-28 melanoma; 19.2 µM with SNB-75 CNS; 51.6 µM in the test with SK-MEL-2 melanoma; 49.4 µM in the test on HCT-116 colon; 47.2 µM in the test with UO-31 renal. The GI50 is 4.28 µM in the test on SN12C renal, 15.4 µM with HOP-92 NSCLC, 36.1 µM with ACHN renal and 49 µM in the test with SR leukemia. In addition, the TGI is more than 100 µM with NCI-H23 lung; more than 100 µM in the test with SK-MEL-28 melanoma; 81.3 µM in the test with SNB-75 CNS; more than 100 µM in the test on SK-MEL-2 melanoma; more than 100 µM with HCT-116 colon; more than 100 µM in the test with UO-31 renal. Moreover, the TGI in the test on SN12C renal is more than 100 µM; in the test on HOP-92 NSCLC, 59.8 µM; in the test with ACHN renal, more than 100 µM; in the test on SR leukemia, more than 100 µM.

Consider `COc1cc(C2C3=C(COC3=O)Nc3c2ccc2c3CCCC2)cc2c1OCO2` (centres undefined), for which the GI50 is 0.0439 µM with NCI-H23 lung; 0.0547 µM in the test on SK-MEL-28 melanoma; 0.0251 µM with SNB-75 CNS; 0.068 µM in the test on SK-MEL-2 melanoma; 0.039 µM in the test with HCT-116 colon; 0.337 µM in the test on UO-31 renal. For the same compound, the GI50 in the test with SN12C renal is 0.0723 µM; in the test on HOP-92 NSCLC it was 0.364 µM; in the test with ACHN renal, 0.134 µM; with SR leukemia, 0.0354 µM. In addition, the TGI with NCI-H23 lung was 13.7 µM; in the test on SK-MEL-28 melanoma, more than 100 µM; in the test on SNB-75 CNS, 14.5 µM; in the test on SK-MEL-2 melanoma, 27.4 µM; in the test with HCT-116 colon, 3.29 µM; in the test on UO-31 renal, more than 100 µM. In addition, the TGI is more than 100 µM in the test with SN12C renal, 20.8 µM with HOP-92 NSCLC, more than 100 µM in the test on ACHN renal and more than 21 µM in the test on SR leukemia.

As to `O=C(CC1(O)C(=O)Nc2ccccc21)c1ccc(O)cc1` (centres undefined), the TGI with NCI-H23 lung, with SK-MEL-28 melanoma, in the test on SNB-75 CNS, in the test on SK-MEL-2 melanoma, in the test on HCT-116 colon and with UO-31 renal was more than 100 µM in each case. In addition, the TGI in the test on SN12C renal, in the test on HOP-92 NSCLC, in the test on ACHN renal and in the test with SR leukemia was more than 100 µM each time.

As to `CCC(=O)Nc1ccccc1C#C/C=C\C#Cc1ccccc1C(F)(F)F`, the GI50 in the test on NCI-H23 lung was 5.27 µM; in the test on SK-MEL-28 melanoma, 3.65 µM; with SNB-75 CNS, 0.884 µM; with SK-MEL-2 melanoma, 0.631 µM; in the test with HCT-116 colon, 2.81 µM; in the test with UO-31 renal, 2.59 µM. The GI50 with SN12C renal is 2.22 µM; in the test with HOP-92 NSCLC, 3.01 µM; with ACHN renal, 3.98 µM; with SR leukemia, 0.386 µM. Besides, the TGI in the test with NCI-H23 lung was more than 50 µM; in the test on SK-MEL-28 melanoma, more than 50 µM; with SNB-75 CNS, 5.85 µM; in the test on SK-MEL-2 melanoma it was more than 11.1 µM; with HCT-116 colon, 25.8 µM; in the test with UO-31 renal it was more than 50 µM. The TGI was more than 50 µM in the test with SN12C renal, more than 36.1 µM in the test with HOP-92 NSCLC and more than 50 µM in the test on ACHN renal.
